From publication PMC5778758, “Functional characterization of oligopeptide transporter 1 of dairy cows” (Journal of Animal Science and Biotechnology, 2018)
Peptide text beside a SMILES is read from it.

Key:
bPepT1 [1] = molecular target: T1, bPepT1 (Bos taurus, UniProt A5D7E5); test: Inhibition of [3H]-Gly-Sar uptake in bPepT1-transfected CHO cells; format: cell-based, bovine (dairy cows); conditions: for IC50: read-out: IC50 (inhibition of [3H]-Gly-Sar uptake), Bovine
T1 construct: expressed in transfected cells; host or cells: CHO cells, transient transfection with pcDNA3.1-bPepT1
T1 sequence (A5D7E5 1-707): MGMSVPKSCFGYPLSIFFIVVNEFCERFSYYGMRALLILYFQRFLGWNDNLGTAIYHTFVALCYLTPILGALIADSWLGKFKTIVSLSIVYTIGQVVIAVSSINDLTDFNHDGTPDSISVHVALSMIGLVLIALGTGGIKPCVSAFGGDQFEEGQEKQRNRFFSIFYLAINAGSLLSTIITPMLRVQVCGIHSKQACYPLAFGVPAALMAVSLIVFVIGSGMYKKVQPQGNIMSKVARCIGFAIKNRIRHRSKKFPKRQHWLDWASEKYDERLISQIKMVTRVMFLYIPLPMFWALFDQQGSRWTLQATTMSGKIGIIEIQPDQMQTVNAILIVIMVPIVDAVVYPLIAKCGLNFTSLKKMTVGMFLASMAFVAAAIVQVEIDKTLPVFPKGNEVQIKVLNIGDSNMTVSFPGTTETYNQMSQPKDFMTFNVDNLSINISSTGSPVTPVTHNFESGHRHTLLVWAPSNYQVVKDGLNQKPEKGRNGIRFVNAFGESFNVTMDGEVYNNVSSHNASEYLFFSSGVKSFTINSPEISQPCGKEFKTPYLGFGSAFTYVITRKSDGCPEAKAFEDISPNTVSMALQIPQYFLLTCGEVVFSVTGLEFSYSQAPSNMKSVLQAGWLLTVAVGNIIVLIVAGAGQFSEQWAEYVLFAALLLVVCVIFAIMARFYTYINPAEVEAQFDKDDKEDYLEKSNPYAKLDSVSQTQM
Procedure: (§1) The CHO cells were cultured in F12 Ham’s medium that contained 10% FBS. All cell cultures were maintained at 37 °C and 5% CO2 in a humidified atmosphere. The culture medium was changed every other day. One day before transfection, the CHO cells were passaged and plated onto 12-well plates at a density of 5.0 × 10^4 cells/well. The bPepT1 cDNA [19] was cloned into the pcDNA3.1 expression vector (Invitrogen, Carlsbad, USA). When the CHO cells were cultured to approximately 70–90% confluence, the cells were transfected with the pcDNA3.1-bPepT1 vector or the pcDNA3.1 vector as a control. For each well, 1 μg of DNA was mixed with 2 μL of P3000™ and 1 μL of Lipofectamine 3000 (Invitrogen, Carlsbad, USA) in 50 μL of OPTI-MEM and incubated at room temperature for 5 min. Then, the DNA-lipid complex was added into each well and the cells were transfected for 24 h.
(§2) The transport activity of bPepT1 was determined using [^3H]-Gly-Sar (3.7 × 10^4 Bq/mL), a well-known hydrolysis-resistant peptide substrate, in transiently transfected CHO cells. The transfected cells were washed three times with uptake buffer at pH 6.0 which contained 140 mmol/L NaCl, 5.4 mmol/L KCl, 0.8 mmol/L MgSO4, 1.8 mmol/L CaCl2, 5 mmol/L glucose, and 25 mmol/L MES. Then, the cells were preincubated with the buffer for 30 min at 37 °C.
For the transport time study, the transfected CHO cells were incubated with 0.02 mmol/L of [^3H]-Gly-Sar (3.7 × 10^4 Bq/mL) for various times (1, 5, 10, 20, 40, and 60 min). For the pH dependency study, the pH of the uptake buffer was adjusted to various pH (5.0, 5.5, 6.0, 6.5, 7.0, and 7.5) with HEPES/Tris or MES/Tris. For the transport kinetic study, Gly-Sar was prepared at various concentrations (0.02–10 mmol/L) with 3.7 × 10^4 Bq/mL [^3H]-Gly-Sar. For the inhibition study, 15 small peptides that contained essential AA at five concentrations (0.001–10 mmol/L) were added into the uptake buffer with [^3H]-Gly-Sar, and they were incubated with the CHO cells for 5 min. Then, the concentration of unlabeled peptide that inhibited 50% of [^3H]-Gly-Sar uptake (IC50) was calculated using PRISM software (GraphPad, San Diego, CA, USA). Uptake was stopped by washing with ice-cold uptake buffer. The cells were lysed by adding 0.5 mL lysis buffer that contained 1% Triton X-100, followed by incubation at 37 °C for 60 min. The radioactivity of the cell lysate was measured using liquid scintillation counting (LSC, Wallac1414, Wallac Co., Turku, Finland). The total protein of the cell lysate was determined using a BCA Protein Assay Kit (Beyotime). The uptake was expressed as nmol/(mg protein • 5 min).

sheep PepT1 [2] = conditions: CHO cells transfected with sheep PepT1 cDNA; ref Chen et al. [14]; cited from earlier work
Source text: Table 1 Kinetic parameters of CHO cells transfected with bovine, sheep, pig, and chicken PepT1 cDNA | column: IC50, mmol/L / Sheep^c

pig PepT1 = conditions: CHO cells transfected with pig PepT1 cDNA; CBD = cannot be determined; ref Klang et al. [17]; cited from earlier work
Source text: Table 1 Kinetic parameters of CHO cells transfected with bovine, sheep, pig, and chicken PepT1 cDNA | column: IC50, mmol/L / Pig^d

chicken PepT1 [3] = conditions: CHO cells transfected with chicken PepT1 cDNA; ref Chen et al. [15]; cited from earlier work
Source text: Table 1 Kinetic parameters of CHO cells transfected with bovine, sheep, pig, and chicken PepT1 cDNA | column: IC50, mmol/L / Chicken^e

bPepT1 [4] = molecular target: T1, bPepT1; test: Gly-Sar transport kinetics in bPepT1-transfected CHO cells; format: cell-based, bovine (dairy cows); conditions: 5 min, n = 6
Procedure: as §1, §2
For the transport time study, the transfected CHO cells were incubated with 0.02 mmol/L of [^3H]-Gly-Sar (3.7 × 10^4 Bq/mL) for various times (1, 5, 10, 20, 40, and 60 min). For the pH dependency study, the pH of the uptake buffer was adjusted to various pH (5.0, 5.5, 6.0, 6.5, 7.0, and 7.5) with HEPES/Tris or MES/Tris. For the transport kinetic study, Gly-Sar was prepared at various concentrations (0.02–10 mmol/L) with 3.7 × 10^4 Bq/mL [^3H]-Gly-Sar. […] The radioactivity of the cell lysate was measured using liquid scintillation counting (LSC, Wallac1414, Wallac Co., Turku, Finland). The total protein of the cell lysate was determined using a BCA Protein Assay Kit (Beyotime). The uptake was expressed as nmol/(mg protein • 5 min).

bPepT1 [5] = molecular target: T1, bPepT1; test: Time course of [3H]-Gly-Sar uptake in transfected CHO cells; format: cell-based, bovine (dairy cows); conditions: 0.02 mmol/L; 1–60 min; 24 h after transfection with bPepT1; n = 5
Procedure: as §1, with “Then, the DNA-lipid complex was added into each well and the cells were transfected for 24 h.” left out
(§3) The transport activity of bPepT1 was determined using [^3H]-Gly-Sar (3.7 × 10^4 Bq/mL), a well-known hydrolysis-resistant peptide substrate, in transiently transfected CHO cells. […]
(§4) For the transport time study, the transfected CHO cells were incubated with 0.02 mmol/L of [^3H]-Gly-Sar (3.7 × 10^4 Bq/mL) for various times (1, 5, 10, 20, 40, and 60 min). […] The radioactivity of the cell lysate was measured using liquid scintillation counting (LSC, Wallac1414, Wallac Co., Turku, Finland). The total protein of the cell lysate was determined using a BCA Protein Assay Kit (Beyotime). The uptake was expressed as nmol/(mg protein • 5 min).

CHO cells = test: [3H]-Gly-Sar uptake in CHO cells transfected with pcDNA3.1 control vector; format: cell-based, Chinese hamster; conditions: 0.02 mmol/L, 1–60 min, n = 5
Procedure: as §1, with “Then, the DNA-lipid complex was added into each well and the cells were transfected for 24 h.” left out
as §3, §4

bPepT1 [6] = molecular target: T1, bPepT1; test: pH dependency of Gly-Sar uptake in bPepT1-transfected CHO cells; format: cell-based, bovine (dairy cows); conditions: 0.02 mmol/L [3H]-Gly-Sar; pH 5.0–7.5; 5 min; n = 4; P < 0.05
Procedure: as §1, with “Then, the DNA-lipid complex was added into each well and the cells were transfected for 24 h.” left out
as §3, §4

chicken PepT1 [7] = conditions: ref [15], read-out: Km for Gly-Sar, chickens; cited from earlier work
Source text: (§5) These features of bPepT1 met the requirement for transporting a large number of various small peptides. The str ...

sheep PepT1 [8] = conditions: ref [14], read-out: Km for Gly-Sar, sheep; cited from earlier work
Source text: as §5

[9] = 0.02 mmol/L [3H]-Gly-Sar (3.7 × 10^4 Bq/mL), unlabeled peptide 0.001–10 mmol/L, pH 6.0, 5 min, liquid scintillation counting, n = 4 (Fig. 6), CBD = cannot be determined

Q: With N[C@@H](Cc1c[nH]c2ccccc12)C(=O)N[C@@H](Cc1ccccc1)C(=O)O [Trp-Phe] (H-Trp-Phe-OH) as the compound, how does the IC50 (bPepT1 [1]; [9]) read?
A: Its IC50 is 14 µM.

Q: What does the source list for NCCCC[C@H](NC(=O)[C@H](Cc1c[nH]c2ccccc12)NC(=O)[C@@H](N)CCCCN)C(=O)O [Lys-Trp-Lys] (H-Lys-Trp-Lys-OH; N-terminus and C-terminus assumed)?
A: IC50 (inhibition of [3H]-Gly-Sar uptake), Bovine (bPepT1 [1]; [9]): CBD; IC50 (bPepT1 [1]; [9]): > 2070 µM; Favorability as substrate / affinity for bPepT1 (in words) (bPepT1 [1]; judged from IC50 values): less favorable substrates for bPepT1; IC50 (sheep PepT1 [2]): 3730 µM; IC50 (pig PepT1): 2200 µM; IC50 (chicken PepT1 [3]): 5900 µM

Q: Which IC50 (bPepT1 [1]; [9]) does the source give for NCCCC[C@H](N)C(=O)N[C@@H](Cc1ccccc1)C(=O)O [Lys-Phe] here?
A: Its IC50 is 90 µM.

Q: With NCCCC[C@H](NC(=O)[C@@H](N)CCCCN)C(=O)O [Lys-Lys] as the compound, how does the IC50 (bPepT1 [1]; [9]) read?
A: The IC50 was 9650 µM.

Q: With NCCCC[C@H](NC(=O)CN)C(=O)O [Gly-Lys] (H-Gly-Lys-OH) as the compound, how does the IC50 (bPepT1 [1]; [9]) read?
A: Its IC50 is 78 µM.

Q: For CSCC[C@H](NC(=O)CN)C(=O)O [Gly-Met], which IC50 (bPepT1 [1]; [9]) is on record?
A: The IC50 was 32 µM.

Q: Which IC50 (bPepT1 [1]; [9]) does the source give for CC(C)C[C@H](N)C(=O)NCC(=O)NCC(=O)O [Leu-Gly-Gly] (H-Leu-Gly-Gly-OH) here?
A: Its IC50 is 2070 µM.

Q: With CSCC[C@H](NC(=O)[C@@H](N)CCSC)C(=O)O [Met-Met] (H-Met-Met-OH) as the compound, how does the IC50 (bPepT1 [1]; [9]) read?
A: The IC50 was 96 µM.

Q: Which IC50 (bPepT1 [1]; [9]) does the source give for CSCC[C@H](N)C(=O)N[C@@H](CC(C)C)C(=O)N[C@@H](Cc1ccccc1)C(=O)O [Met-Leu-Phe] here?
A: Its IC50 is 50 µM.

Q: For CSCC[C@H](NC(=O)[C@H](CCSC)NC(=O)CNC(=O)[C@@H](N)CCSC)C(=O)O [Met-Gly-Met-Met] (H-MGMM-OH), which IC50 (bPepT1 [1]; [9]) is on record?
A: The IC50 was 6040 µM.

Q: For NCC(=O)O [Gly], which “Inhibition of [3H]-Gly-Sar uptake (in words)” value (bPepT1 [1]; 0.02 mmol/L [3H]-Gly-Sar, pH 6.0, 5 min) is on record?
A: Its value is “not inhibited”.

Q: For CSCC[C@H](N)C(=O)N[C@@H](CCC(=O)O)C(=O)O [Met-Glu] (H-Met-Glu-OH), which IC50 (bPepT1 [1]; [9]) is on record?
A: The IC50 was 23 µM.

Q: Which IC50 (bPepT1 [1]; [9]) does the source give for CSCC[C@H](N)C(=O)N[C@@H](CC(C)C)C(=O)O [Met-Leu] (H-Met-Leu-OH) here?
A: Its IC50 is 80 µM.

Q: For CSCC[C@H](N)C(=O)NCC(=O)O [Met-Gly] (H-Met-Gly-OH), which IC50 (bPepT1 [1]; [9]) is on record?
A: Its IC50 is 58 µM.

Q: For CSCC[C@H](N)C(=O)N[C@@H](CCCCN)C(=O)O [Met-Lys] (H-Met-Lys-OH), which IC50 (bPepT1 [1]; [9]) is on record?
A: Its IC50 is 20 µM.

Q: Which IC50 (bPepT1 [1]; [9]) does the source give for CSCC[C@H](NC(=O)[C@@H](N)CCCCN)C(=O)O [Lys-Met] here?
A: The IC50 was 32 µM.

Q: For glycyl-sarcosine [Gly-Sar], which Km (bPepT1 [4]; Gly-Sar 0.02–10 mmol/L with 3.7 × 10^4 Bq/mL [3H]-Gly-Sar, 37 °C preincubation, Michaelis–Menten, mean ± SEM) is on record?
A: Its Km is 940 ± 60 µM.

Q: What about the “maximum velocity (Vmax)” value (bPepT1 [4]; Gly-Sar 0.02–10 mmol/L with 3.7 × 10^4 Bq/mL [3H]-Gly-Sar, Michaelis–Menten, mean ± SEM) of the same compound?
A: The value was 20.80 ± 1.74 nmol/(mg protein • 5 min).

Q: What about the “Gly-Sar concentration at which transport was saturated” value (bPepT1 [4]; Gly-Sar 0.02–10 mmol/L) of the same compound?
A: The value was 5 mmol/L.

Q: And the “Time course of [3H]-Gly-Sar uptake” value (bPepT1 [5])?
A: Its value is “increased rapidly and linearly in the first 10 min and reached a plateau subsequently”.

Q: What about the “[3H]-Gly-Sar uptake in control-vector cells” value (CHO cells) of the same compound?
A: Its value is “only marginal, and it was much lower than in CHO cells that were transfected with the bPepT1 expression vector”.

Q: And the “pH dependency of [3H]-Gly-Sar uptake” value (bPepT1 [6])?
A: The value was “pH-dependent and greater at pH 6.5 and 7.0 than at pH 5.5 and 6.0 which was greater than at pH 5.0 and 7.5”.

Q: And the Km (chicken PepT1 [7])?
A: Its Km is 2600 ± 300 µM.

Q: And the Km (sheep PepT1 [8])?
A: The Km was 1000 ± 100 µM.
